Active and inactive are the calls of the source. The rule behind the calls is not given here.
Assays:
[1] = Acute toxicity in iv dosed C57BL/6 mouse assessed as lethal dose; assay type: organism-based; conditions: in vivo
Raji = assay: Antiproliferative activity against human Raji cells assessed as reduction in cell growth incubated for 72 hrs by MTT assay; assay type: functional, cell-based
PANC-1 = assay: Antiproliferative activity against human PANC-1 cells assessed as reduction in cell growth incubated for 72 hrs by MTT assay; assay type: functional, cell-based; conditions: PANC-1, 72 h
COLO357 [2] = assay: Antiproliferative activity against human COLO357 cells assessed as reduction in cell growth incubated for 72 hrs by MTT assay; assay type: functional, cell-based; conditions: COLO357, 72 h
SW-620 [3] = assay: Antiproliferative activity against human SW-620 cells assessed as reduction in cell growth incubated for 72 hrs by MTT assay; assay type: functional, cell-based; conditions: SW-620, 72 h
[4] = Acute toxicity in iv dosed CD-1 mouse assessed as mouse death at 5 mg/kg, iv measured after 16 hrs; assay type: organism-based; conditions: in vivo
[5] = Acute toxicity in iv dosed A/Sn mouse assessed as mouse death at 5 mg/kg, iv measured after 16 hrs; assay type: organism-based; conditions: in vivo
[6] = Acute toxicity in iv dosed CBA mouse assessed as mouse death at 5 mg/kg, iv measured after 16 hrs; assay type: organism-based; conditions: in vivo
HEK293 = assay: Cytotoxicity against human HEK293 cells assessed as reduction in cell growth incubated for 72 hrs by MTT assay; assay type: cell-based; conditions: HEK293, 72 h
HeLa = assay: cells; conditions: Homo sapiens, 72 h
Description: Antiproliferative activity against human HeLa cells assessed as reduction in cell growth incubated for 72 hrs by MTT assay

[7] = Acute toxicity in iv dosed BALB/c mouse assessed as mouse death at 5 mg/kg, iv measured after 16 hrs; assay type: organism-based; conditions: in vivo
HaCaT = assay: Cytotoxicity against human HaCat cells assessed as reduction in cell growth incubated for 72 hrs by MTT assay; assay type: cell-based
[8] = Acute toxicity in C57BL/6 mouse assessed as mouse death at 5 mg/kg, iv measured after 16 hrs; assay type: organism-based; conditions: in vivo
SW-620 [9] = assay: Induction of cell cycle arrest in human SW-620 cells assessed as accumulation at apoptotic phase at 5 nM incubated for 48 hrs by RNase/PI staining based flow cytometry analysis (reference value: 0.8 %); assay type: functional
COLO357 [10] = assay: Induction of cell cycle arrest in human COLO357 cells assessed as accumulation at G2/M phase at 5 nM incubated for 48 hrs by RNase/PI staining based flow cytometry analysis (reference value: 13 %); assay type: functional
COLO357 [11] = assay: Induction of cell cycle arrest in human COLO357 cells assessed as accumulation at G1 phase at 5 nM incubated for 48 hrs by RNase/PI staining based flow cytometry analysis (reference value: 72 %); assay type: functional
COLO357 [12] = assay: Induction of cell cycle arrest in human COLO357 cells assessed as accumulation at apoptotic phase at 5 nM incubated for 48 hrs by RNase/PI staining based flow cytometry analysis (reference value: 1.3 %); assay type: functional
SW-620 [13] = assay: Induction of cell cycle arrest in human SW-620 cells assessed as accumulation at G1 phase at 5 nM incubated for 48 hrs by RNase/PI staining based flow cytometry analysis (reference value: 65 %); assay type: functional
[14] = Acute toxicity in mouse assessed as lethal dose measured after 7 days; conditions: in vivo, time 7 day
SW-620 [15] = assay: Induction of cell cycle arrest in human SW-620 cells assessed as accumulation at G2/M phase at 5 nM incubated for 48 hrs by RNase/PI staining based flow cytometry analysis (reference value: 16 %); assay type: functional
Tubulin (Homo sapiens) [16] = biological target: T1, Tubulin (Homo sapiens) (UniProt P68371+Q9H4B7+P0DPH7+P68366+Q13509+Q71U36+P04350+Q3ZCM7+P07437+P68363+Q9BQE3+Q6PEY2+Q13885+Q9BVA1+Q9BUF5); assay: Inhibition of tubulin assembly in human SW-620 cells assessed as induction of tubulin dissipation at 5 nM incubated for 24 hrs by Hoechst 33342 staining based confocal microscopic analysis; assay type: cell-based
Tubulin (Homo sapiens) [17] = biological target: T1, Tubulin (Homo sapiens); assay: Inhibition of tubulin assembly in human SW-620 cells assessed as induction of chromosome disturbance at 5 nM incubated for 24 hrs by Hoechst 33342 staining based confocal microscopic analysis; assay type: cell-based
[18] = Acute toxicity in C57BL/6 mouse assessed as mouse death at 10 mg/kg, iv; assay type: organism-based; conditions: in vivo
Tubulin (Homo sapiens) [19] = biological target: T1, Tubulin (Homo sapiens); assay: Inhibition of tubulin assembly in human COLO357 cells assessed as disruption of mitotic spindle at 5 nM incubated for 24 hrs by Hoechst 33342 staining based confocal microscopic analysis; assay type: cell-based
Tubulin (Homo sapiens) [20] = biological target: T1, Tubulin (Homo sapiens); assay: Inhibition of tubulin assembly in human COLO357 cells assessed as induction of chromosome disturbance at 5 nM incubated for 24 hrs by Hoechst 33342 staining based confocal microscopic analysis; assay type: cell-based
Tubulin (Homo sapiens) [21] = biological target: T1, Tubulin (Homo sapiens); assay: Inhibition of tubulin assembly in human COLO357 cells assessed as induction of tubulin dissipation at 5 nM incubated for 24 hrs by Hoechst 33342 staining based confocal microscopic analysis; assay type: cell-based
Ovis aries = organism: Ovis aries; assay: Inhibition of lamb brain tubulin polymerization assessed as reduction in microtubule assembly at 0.5 to 5 uM incubated for 40 mins at […] by spectrophotometric analysis relative to control; assay type: tissue-based; conditions: dose 0.5-5 µM
Tubulin (Homo sapiens) [22] = biological target: T1, Tubulin (Homo sapiens); assay: Inhibition of tubulin assembly in human SW-620 cells assessed as disruption of mitotic spindle at 5 nM incubated for 24 hrs by Hoechst 33342 staining based confocal microscopic analysis; assay type: cell-based

Row | Structure (SMILES) | IC50 (Raji) [nM] | IC50 (PANC-1) [nM] | IC50 (COLO357 [2]) [nM] | IC50 (SW-620 [3]) [nM] | IC50 (HEK293) [nM] | IC50 (HeLa) [nM] | IC50 (HaCaT) [nM] | also measured
1 | C=C1c2cc3c(cc2OC1(F)F)[C@@H](NC(C)=O)CCc1cc(OC)c(OC)c(OC)c1-3 | 0.05 | 0.01 | 0.02 | 0.04 | 0.03 | 0.03 | 0.03 | LD50 [1]: > 10 mg/kg; Activity [4]: Non-Toxic; Activity [5]: Non-Toxic; Activity [6]: Non-Toxic; Activity [7]: Non-Toxic; Activity [8]: Non-Toxic
2 | COc1cc2c(c(OC)c1OC)-c1cc(I)c(OC(=O)/C=C/C(F)(F)F)cc1[C@@H](NC(C)=O)CC2 | 180 | – | 30 | 6 | 170 | – | – | –
3 | COc1cc2c(c(OC)c1OC)-c1ccc(OC)c(=O)cc1[C@@H](NC(C)=O)CC2 [COLCHICINE] | 16 | 0.1 | – | 2.4 | – | 1.3 | 0.3 | Activity (SW-620 [9]): 8.1%; Activity (COLO357 [10]): 31%; Activity [4]: Toxic; Activity [5]: Toxic; Activity (COLO357 [11]): 62%; Activity (COLO357 [12]): 2%; Activity [6]: Toxic; Activity (SW-620 [13]): 7.4%; LD50 at 168 h [14]: 1.6 mg/kg; Activity (SW-620 [15]): 74%; Activity [7]: Toxic; Activity [8]: Toxic
4 | COc1cc2c(c(OC)c1OC)-c1cc(I)c(OC(=O)C=C(C)C)cc1[C@@H](NC(C)=O)CC2 | 160 | – | 160 | 32 | 805 | – | – | –
5 | COc1cc2c(c(OC)c1OC)-c1cc3c(cc1[C@@H](NC(C)=O)CC2)OC/C3=C\c1ccccc1 | 4600 | > 20000 | > 20000 | > 20000 | > 20000 | 4020 | 4370 | –
6 | COC(=O)Cc1coc2cc3c(cc12)-c1c(cc(OC)c(OC)c1OC)CC[C@@H]3NC(C)=O | 3900 | 820 | 830 | 4100 | 4420 | 805 | 810 | –
7 | COc1cc2c(c(OC)c1OC)-c1cc3c(cc1[C@@H](NC(C)=O)CC2)OCC3=C(C)C | 420 | 850 | 860 | 780 | 400 | 410 | 390 | –
8 | C/C=C/C(=O)Oc1cc2c(cc1I)-c1c(cc(OC)c(OC)c1OC)CC[C@@H]2NC(C)=O | 139 | – | 161 | 4 | > 4000 | – | – | –
9 | C=C1COc2cc3c(cc21)-c1c(cc(OC)c(OC)c1OC)CC[C@@H]3NC(C)=O | 0.03 | 0.08 | 0.04 | 0.02 | 0.08 | 1.7 | 0.3 | LD50 [1]: 10 mg/kg; Activity (SW-620 [9]): 4%; inhibition (Tubulin (Homo sapiens) [16]): Active; inhibition (Tubulin (Homo sapiens) [17]): Active; Activity [18]: Toxic; Activity (COLO357 [10]): 77%; Activity [4]: Non-Toxic; Activity [5]: Non-Toxic; Activity (COLO357 [11]): 18%; Activity (COLO357 [12]): 2%; Activity [6]: Non-Toxic; inhibition (Tubulin (Homo sapiens) [19]): Active; inhibition (Tubulin (Homo sapiens) [20]): Active; Activity (SW-620 [13]): 12%; inhibition (Tubulin (Homo sapiens) [21]): Active; inhibition (Ovis aries): 50%; inhibition (Tubulin (Homo sapiens) [22]): Active; Activity (SW-620 [15]): 76%; Activity [7]: Non-Toxic; Activity [8]: Non-Toxic
10 | COc1cc2c(c(OC)c1OC)-c1cc(I)c(OC(=O)/C=C/Cl)cc1[C@@H](NC(C)=O)CC2 | 825 | – | 810 | 800 | 810 | – | – | –
11 | COc1cc2c(c(OC)c1OC)-c1cc3c(C)coc3cc1[C@@H](NC(C)=O)CC2 | 1.3 | 2.1 | 1.3 | 1.3 | 5 | 0.8 | 0.5 | –
12 | COc1cc2c(c(OC)c1OC)-c1cc3c(C)cc(=O)oc3cc1[C@@H](NC(C)=O)CC2 | 16 | – | 160 | 140 | 32 | – | – | –
13 | COc1cc2c(c(OC)c1OC)-c1cc3c(cc1[C@@H](NC(C)=O)CC2)OC/C3=C(\C)CCC=C(C)C | 800 | 810 | 4330 | > 20000 | 4280 | 4250 | 4500 | –
14 | C/C=C1/COc2cc3c(cc21)-c1c(cc(OC)c(OC)c1OC)CC[C@@H]3NC(C)=O | 3.8 | 32 | 5 | 6 | 3.8 | 32 | 14 | –
15 | C=CC(=O)Oc1cc2c(cc1I)-c1c(cc(OC)c(OC)c1OC)CC[C@@H]2NC(C)=O | 32 | – | 150 | 30 | 158 | – | – | –
16 | COc1cc(-c2cc(=O)oc3cc4c(cc23)-c2c(cc(OC)c(OC)c2OC)CC[C@@H]4NC(C)=O)ccc1O | 837 | – | 870 | 160 | 4000 | – | – | –
17 | CC/C=C1/COc2cc3c(cc21)-c1c(cc(OC)c(OC)c1OC)CC[C@@H]3NC(C)=O | 90 | 80 | 800 | 810 | 166 | 150 | 135 | –
18 | COC(=O)/C=C/c1cc2c(cc1O)[C@@H](NC(C)=O)CCc1cc(OC)c(OC)c(OC)c1-2 | > 4000 | – | > 4000 | > 4000 | > 4000 | – | – | –

Reference: ChEMBL document CHEMBL4706539 (Eur J Med Chem, 2020)
